# Literature values in patent US20040259899A1, “Combination therapy for constipation” (priority 2003, published 2004).
# Conditions: white crystalline powder as provided (Mallinckrodt Pharmaceuticals)
compound,measurement,value
"C[N@+]1(CC2CC2)CC[C@]23c4c5ccc(O)c4O[C@H]2C(=O)CC[C@@]3(O)[C@H]1C5 [Methylnaltrexone, N-cyclopropylmethylnoroxy-morphine-methobromide]",solubility in water,freely soluble
